Columns and labels:
[1] = test system: 2D12.5; experiment: Relative binding curves of 2D12.5 for Y-DOTA isomers, Y-DTPA and sidechain variants (FIG. 16, 17); design: species or system mouse; conditions: for relative binding affinity for 2D12.5 (in words): coordinated metal Y^3+
From the text: FIG. 16 is a graphical display showing the relative binding curves of 2D12.5 for Y-DOTA isomers and Y-DTPA. 2D12.5 binds both the (R)- and (S)-isomer of 2-(4-nitrobenzyl)-DOTA when the coordinated metal is Y^3+ (the same behavior is expected for the other rare earths). The (S)-isomer confers Λ-helicity, while the (R)-isomer confers Δ-helicity to the acetate arms. […] Y-DOTA (no-sidearm) exists in solution as a racemic mixture of the coordination isomers.
FIG. 17 is a graphical display showing relative binding curves of Y-DOTA molecules with different sidechain locations. […] Evaluation of the crystal structure seems to indicate that shorter substitutions at the position may bind with higher affinity. Substitutions at other locations may yield reasonably high affinities as well. The (5-Amino-2-methoxy-phenyl)-carboxymethyl)-DOTA analyzed in this experiment was racemic, so it is not clear which isomer binds with higher affinity. The low pKa of the carboxymethyl proton makes it difficult to prepare a chirally pure molecule.

[2] = test system: antibody 2D12.5; experiment: Competitive immunoassay (ELISA) of metal-DOTA complexes relative to Y-DOTA; format: binding, mouse; conditions: 37° C.; for relative binding affinity compared with Y-DOTA (in words): 15 ions tested
From the text: FIG. 13 is graphical display showing the relative binding of metal-DOTA complexes to antibody 2D12.5. A representative set of competitive binding curves obtained from ELISA experiments described in Example 3 below. Error bars (representing the standard error of the mean) are shown, but are generally smaller than the data points.
To determine the metal selectivity of the antibody 2D12.5, a competitive immunoassay was used to measure the binding constants of multiple metal-DOTA complexes relative to Y^3+-DOTA.
We examined the monoclonal antibody 2D12.5, initially developed to bind specifically to Y-DOTA for targeted radiotherapy (see, e.g., Goodwin et al., Cancer Res. 54: 5937-5946 (1994)), in order to determine the scope of its activity. To assess the metal selectivity of antibody 2D12.5, a competitive immunoassay to measure the binding constants of various metal-DOTA complexes relative to the original Y^3+ complex was developed (FIG. 12). Briefly, 2D12.5 was incubated at 37° C. in the presence of immobilized Y-DOTA and a soluble metal-DOTA competitor. The metal-DOTA concentration was varied from μM to pM in order to determine the relative binding affinity of 2D12.5 for each metal chelate in comparison to Y-DOTA. Binding was measured by standard methods known to those of skill in the art. The DOTA analog used to evaluate binding was [S]-2-(p-nitrobenzyl)-DOTA, which is similar to the original antigen.

[3] = test system: N85D_G54C 2D12.5 mutant; experiment: Permanent binding of metal-AABD and metal-NBD complexes to 2D12.5 Fab mutant N85D_G54C (Western blot)
Method: Metallation of Chelates with stable metal cations. Metals tested in this experiment included Y, La, Lu, Sr and Sc. Stock chelate concentrations were measured using a Co-57 metal binding assay (Meares et al., Anal. Biochem. 142:68-78, 1984). Stock metal solutions (approximately 0.2 M) were prepared by dissolving the appropriate gravimetrically measured rare earth chloride salt in 0.05 M HCl. As an example, YCl3 (2.5 equivalents) was added to 25 μL of NBD ([…]) dissolved in 0.1 M tetramethylammonium acetate, and the pH was adjusted to 5 by the addition of triethylamine. The metallation was allowed to proceed overnight at 50° C. Samples were promptly frozen at −70° C., and metallation efficiency was assessed using a competitive metal-binding assay with Co-57.^3 Excess metal was scavenged with DTPA, which has very low affinity for the antibody (<<1%).
Metal-AABD and metal-NBD complexes were incubated with 2D12.5 Fab mutant N85D_G54C and samples denatured, reduced and separated by SDS-PAGE, as described for Y-90 in the previous examples. […]

Row | Compound | relative binding affinity for 2D12.5 (in words) [1] | relative binding affinity compared with Y-DOTA (in words) [2] | other results
1 | O=C(O)CN1CCN(CC(=O)O)CCN(CC(=O)O)[C@H](Cc2ccc([N+](=O)[O-])cc2)CN(CC(=O)O)CC1 [(R)-isomer of 2-(4-nitrobenzyl)-DOTA, 2-(4-nitrobenzyl)-DOTA] | decreases less than an order of magnitude | – | –
2 | O=C(O)CN(CCN(CC(=O)O)CC(=O)O)CCN(CC(=O)O)CC(=O)O [DTPA] | – | – | affinity for the antibody ([1]; DTPA used to scavenge excess metal): < 1%
3 | O=C([O-])CN1CCN(CC(=O)[O-])CCN(CC(=O)[O-])CCN(CC(=O)[O-])CC1.[Eu+3] [Eu^3+] | – | strongest binders | –
4 | O=C([O-])CN1CCN(CC(=O)[O-])CCN(CC(=O)[O-])CCN(CC(=O)[O-])CC1.[Gd+3] [Gd-DOTA] | – | bind more tightly than the original Y^3+ complex | relative binding affinity compared with Y-DOTA (in words) ([2]; listed as Gd^3+): strongest binders
5 | O=C(O)CN1CCN(CC(=O)O)CCN(CC(=O)O)C(Cc2ccc([N+](=O)[O-])cc2)CN(CC(=O)O)CC1 (stereo not shown) [NBD, [S]-2-(p-nitrobenzyl)-DOTA] | – | – | permanent bond formation with N85D_G54C 2D12.5 mutant ([3]; Western blot, hybridoma-derived 2D12.5 as 1° stain): negative
6 | O=C([O-])CN1CCN(CC(=O)[O-])CCN(CC(=O)[O-])CCN(CC(=O)[O-])CC1.[Tb+3] [Tb-DOTA] | – | strongest binders | –
7 | O=C([O-])CN1CCN(CC(=O)[O-])CCN(CC(=O)[O-])CCN(CC(=O)[O-])CC1.[Y+3] [Y-DOTA] | between that observed for the (S)- and (R)-isomers | – | Kd ([2]; DOTA analog used was [S]-2-(p-nitrobenzyl)-DOTA): 10 nM
8 | O=C(O)CN1CCN(CC(=O)O)CCN(CC(=O)O)[C@@H](Cc2ccc([N+](=O)[O-])cc2)CN(CC(=O)O)CC1 [Y-NBD, (S)-2-(4-nitrobenzyl)-DOTA] | clearly stronger | – | binding strength of NBD complexes among the rare earths ([3]; Western blots): one of the strongest binders; relative binding affinity for 2D12.5 (in words) ([1]; listed as (S)-isomer of 2-(4-nitrobenzyl)-DOTA): preferred isomer for binding
9 | (5-Amino-2-methoxyphenyl)-carboxymethyl)-DOTA | still sufficiently strong | – | –

— patent publication US20090093618A1, “STREPTAVIDIN-BIOTIN-LINK ANTIBODY-HAPTEN SYSTEM” (The Regents OF THE UNIVERSITY OF CALIFORNA, priority 2006, published 2009)
